From ChEMBL document CHEMBL1649335, “Discovery of {1-[4-(2-{hexahydropyrrolo[3,4-c]pyrrol-2(1H)-yl}-1H-benzimidazol-1-yl)piperidin-1-yl]cyclooctyl}methanol, systemically potent novel non-peptide agonist of nociceptin/orphanin FQ receptor as analgesic for the treatment of neuropathic pain: design, synthesis, and structure-activity …” (Bioorg Med Chem, 2010) come the findings set out here.

Molecules are shown by their SMILES. Activity calls are given as the source filed them.

A short description of data set [1]: Inhibition of rat K+ATP channel.
Data set [2] deals with T1, Nociceptin receptor (Homo sapiens, UniProt P41146). Nature of the data set: biochemical.
The target in data set [3] is T1, Nociceptin receptor.
Data set [4] has as its target T2, Voltage-gated L-type calcium channel (Rattus norvegicus, UniProt P22002+Q02485+P27732). As to the kind of experiment: Inhibition of rat L-type Ca2+ channel verapamil site.
The nature of data set [5]: Inhibition of rat choline transporter.
Another data set is described as follows: in vitro. The note with it: human, liver microsomes.
Data set [6] has as its target Kappa-type opioid receptor (Homo sapiens, UniProt P41145).
Data set [7] can be described thus: Inhibition of rat 5-HT receptor.
The target in another data set is Glutamate NMDA receptor. As to the kind of experiment: Inhibition of rat NMDA receptor. It counts as protein-complex assay.
Data set [8] has as its system Rattus norvegicus. Nature of the data set: Antiallodynic activity against von Frey hair mechanically stimulated neuropathic pain in icv dosed Sprague-Dawley rat assessed as decrease of response threshold in contralateral paw after 20 mins. It counts as functional, organism-based.
Data set [9] relates to Rattus norvegicus. As to the kind of experiment: Antiallodynic activity against von Frey hair mechanically stimulated neuropathic pain in icv dosed Sprague-Dawley rat assessed as decrease of response threshold in contralateral paw after 1 hr. It is filed as functional, organism-based.
Data set [10] has as its system Rattus norvegicus. As to the kind of experiment: Antiallodynic activity against von Frey hair mechanically stimulated neuropathic pain in Sprague-Dawley rat assessed as increase of response threshold per site at 0.55 to 55 nmol/site administered intrathecally after 1 hr. It counts as functional, organism-based.
Data set [11] relates to Rattus norvegicus. As to the kind of experiment: Antiallodynic activity against von Frey hair mechanically stimulated neuropathic pain in Sprague-Dawley rat assessed as increase of response threshold per site at 0.55 to 170 nmol/site, icv after 20 mins. It counts as functional, organism-based.
Data set [12] concerns Rattus norvegicus. Nature of the data set: Antiallodynic activity against von Frey hair mechanically stimulated neuropathic pain in Sprague-Dawley rat assessed as increase of response threshold per site at 0.55 to 170 nmol/site, icv after 1 hr. It counts as functional, organism-based.
Data set [13] has as its system Rattus norvegicus. As to the kind of experiment: Antiallodynic activity against von Frey hair mechanically stimulated neuropathic pain in intrathecally dosed Sprague-Dawley rat assessed as assessed as minimum effective dose to increase of response threshold per site after 20 mins. It is filed as functional.
For data set [14], the system named is Rattus norvegicus. Nature of the data set: Antiallodynic activity against von Frey hair mechanically stimulated neuropathic pain in Sprague-Dawley rat assessed as assessed as minimum effective dose to increase of response threshold per site at 0.55 to 170 nmol/site, icv after 20 mins. It counts as functional, organism-based.
Data set [15] deals with Rattus norvegicus. Nature of the data set: Antiallodynic activity against von Frey hair mechanically stimulated neuropathic pain in Sprague-Dawley rat assessed as assessed as minimum effective dose to increase of response threshold per site at 0.55 to 170 nmol/site, icv after 1 hr. It counts as functional, organism-based.
Data set [16] concerns Rattus norvegicus. Nature of the data set: Antiallodynic activity against von Frey hair mechanically stimulated neuropathic pain in Sprague-Dawley rat assessed as effect on allodynia in contralateral paw at 0.55 to 170 nmol/site administered intrathecally after 20 mins. It is filed as functional, organism-based.
The subject of data set [17] is Rattus norvegicus. As to the kind of experiment: Antiallodynic activity against von Frey hair mechanically stimulated neuropathic pain in Sprague-Dawley rat assessed as assessed as minimum effective dose to increase of response threshold per site at 0.55 to 55 nmol/site administered intrathecally after 1 hr. It counts as functional, organism-based.
Data set [18] deals with Rattus norvegicus. As to the kind of experiment: Antiallodynic activity against von Frey hair mechanically stimulated neuropathic pain in Sprague-Dawley rat assessed as effect on allodynia in contralateral paw at 0.55 to 170 nmol/site administered intrathecally after 1 hr. It is filed as functional, organism-based.
In data set [19] the test system is Rattus norvegicus. As to the kind of experiment: Antiallodynic activity against von Frey hair mechanically stimulated neuropathic pain in intrathecally dosed Sprague-Dawley rat assessed as increase of response threshold per site after 20 mins. It is filed as functional.
Data set [20] in a line: Inhibition of rat GABA transporter.
For a further data set, the target named is Mu-type opioid receptor (Homo sapiens, UniProt P35372).
The nature of data set [21]: Inhibition of rat N-type Ca2+ channel.
For another data set, the target named is Tyrosine 3-monooxygenase (Rattus norvegicus, UniProt P04177). As to the kind of experiment: Inhibition of rat tyrosine hydroxylase.
Data set [22] in a line: Inhibition of rat Na+ channel site 2.
Data set [23] in a line: Stimulation of rat adenylate cyclase.
Data set [24] concerns the target T2, Voltage-gated L-type calcium channel. As to the kind of experiment: Inhibition of rat L-type Ca2+ channel dihydropyridine site.
For data set [25], the system named is Rattus norvegicus. Nature of the data set: Antiallodynic activity against von Frey hair mechanically stimulated neuropathic pain in Sprague-Dawley rat assessed as assessed as minimum effective dose to increase of response threshold at 1 to 30 mg/kg, sc after 30 mins to 4 hrs. It is filed as functional, organism-based.
The subject of data set [26] is Rattus norvegicus. Nature of the data set: Antiallodynic activity against von Frey hair mechanically stimulated neuropathic pain in Sprague-Dawley rat assessed as increase of response threshold at 1 to 30 mg/kg, sc after 30 mins to 4 hrs. It is filed as functional, organism-based.
The test system of data set [27] is Rattus norvegicus. Nature of the data set: Antiallodynic activity against von Frey hair mechanically stimulated neuropathic pain in Sprague-Dawley rat assessed as effect on allodynia in contralateral paw at 1 to 30 mg/kg, sc after 30 mins to 4 hrs. It counts as functional, organism-based.
Data set [28] in a line: Inhibition of rat chloride channel.
Data set [29] in a line: Inhibition of rat phospholipase C.

T1 sequence (P41146 whole entry): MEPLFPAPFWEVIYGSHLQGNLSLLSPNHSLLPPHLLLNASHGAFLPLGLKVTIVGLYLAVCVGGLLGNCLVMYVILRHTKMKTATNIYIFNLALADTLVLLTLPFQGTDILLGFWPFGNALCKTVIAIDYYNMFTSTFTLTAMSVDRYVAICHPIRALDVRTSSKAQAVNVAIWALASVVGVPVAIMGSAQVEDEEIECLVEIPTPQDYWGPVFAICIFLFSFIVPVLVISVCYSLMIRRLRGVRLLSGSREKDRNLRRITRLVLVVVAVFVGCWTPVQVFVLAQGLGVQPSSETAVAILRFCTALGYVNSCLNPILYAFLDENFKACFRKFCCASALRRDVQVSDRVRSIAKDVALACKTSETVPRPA
Chain of Mu-type opioid receptor (P35372 whole entry): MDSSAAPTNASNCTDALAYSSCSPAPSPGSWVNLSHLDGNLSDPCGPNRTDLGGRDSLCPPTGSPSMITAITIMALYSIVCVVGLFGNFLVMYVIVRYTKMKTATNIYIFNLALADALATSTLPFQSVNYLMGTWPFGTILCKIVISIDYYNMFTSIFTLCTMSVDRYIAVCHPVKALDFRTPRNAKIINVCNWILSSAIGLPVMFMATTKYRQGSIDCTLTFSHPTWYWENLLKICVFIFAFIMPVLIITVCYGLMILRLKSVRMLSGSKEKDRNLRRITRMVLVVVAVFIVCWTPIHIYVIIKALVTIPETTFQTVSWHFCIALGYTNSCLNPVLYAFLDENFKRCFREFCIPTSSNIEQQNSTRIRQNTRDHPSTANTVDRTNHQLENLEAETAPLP
Chain of Kappa-type opioid receptor (P41145 whole entry): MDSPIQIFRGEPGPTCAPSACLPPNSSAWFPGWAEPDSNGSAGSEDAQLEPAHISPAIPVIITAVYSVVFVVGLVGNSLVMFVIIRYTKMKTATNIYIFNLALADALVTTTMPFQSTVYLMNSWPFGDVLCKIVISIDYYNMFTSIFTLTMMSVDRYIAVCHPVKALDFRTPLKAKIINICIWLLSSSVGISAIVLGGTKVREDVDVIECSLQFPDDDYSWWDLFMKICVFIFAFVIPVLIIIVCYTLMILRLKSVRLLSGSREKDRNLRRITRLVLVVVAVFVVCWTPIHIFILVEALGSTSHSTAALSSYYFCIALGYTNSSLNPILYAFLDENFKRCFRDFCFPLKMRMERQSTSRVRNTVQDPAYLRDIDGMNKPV
Chain of Tyrosine 3-monooxygenase (P04177 whole entry): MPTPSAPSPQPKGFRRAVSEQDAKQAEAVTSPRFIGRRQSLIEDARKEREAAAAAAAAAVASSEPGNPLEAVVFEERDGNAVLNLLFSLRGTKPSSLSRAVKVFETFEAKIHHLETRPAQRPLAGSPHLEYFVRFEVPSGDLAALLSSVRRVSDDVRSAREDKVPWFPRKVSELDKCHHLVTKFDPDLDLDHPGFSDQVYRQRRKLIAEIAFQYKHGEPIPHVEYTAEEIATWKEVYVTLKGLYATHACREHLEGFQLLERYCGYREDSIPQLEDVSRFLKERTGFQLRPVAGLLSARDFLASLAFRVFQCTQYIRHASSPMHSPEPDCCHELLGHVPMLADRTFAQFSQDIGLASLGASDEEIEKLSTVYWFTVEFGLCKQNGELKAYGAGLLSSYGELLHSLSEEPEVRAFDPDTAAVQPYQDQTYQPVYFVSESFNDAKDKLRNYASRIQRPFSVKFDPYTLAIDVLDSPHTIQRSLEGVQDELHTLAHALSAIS

With `COc1ccc(Cl)cc1C(=O)NCCc1ccc(S(=O)(=O)NC(=O)NC2CCCCC2)cc1` [GLYBURIDE], the IC50 in data set [1] came out at 1.1 nM.
At Nociceptin receptor [2], `OCC1(N2CCC(n3c(-c4ccc(F)c(Cl)c4)nc4ccccc43)CC2)CCCCC1` displayed a Ki of 4.29 nM. Also, the EC50 on Nociceptin receptor [3] came to 53 nM.
Take `COc1ccc(CCN(C)CCCC(C#N)(c2cc(OC)c(OC)c(OC)c2)C(C)C)cc1OC` (stereo not drawn) [GALLOPAMIL]: the IC50 in data set [4] worked out at 23 nM.
As for `C[N+]1(C)CCO[C@@](O)(c2ccc(-c3ccc([C@@]4(O)C[N+](C)(C)CCO4)cc3)cc2)C1` [HEMICHOLINIUM DIBROMIDE], the midpoint of inhibition in data set [5], the IC50, lay at 7.7 nM.
On Nociceptin receptor [2], `CN1CCN(c2nc3ccccc3n2C2CCN(C3(CO)CCCCCCC3)CC2)CC1` registered a Ki of 4.29 nM. Also, the EC50 amounted to 17 nM on Nociceptin receptor [3] and 18 nM in [6]. The same compound displayed a half-life at 1 µM in the data set “in vitro” of 9.5 min.
Consider `NCCc1c[nH]c2ccc(O)cc12` [SEROTONIN], for which the IC50 in data set [7] amounted to 2.7 nM.
In turn, `O=C(O)[C@@H]1C[C@H](CP(=O)(O)O)CCN1` [SELFOTEL] registered a 50% inhibitory concentration (IC50) against Glutamate NMDA receptor of 1620 nM.
As to `CC(C)C[C@H](NC(=O)[C@H](CCCCN)NC(=O)[C@H](CCCNC(=N)N)NC(=O)[C@H](C)NC(=O)[C@H](CO)NC(=O)[C@H](CCCCN)NC(=O)[C@H](CCCNC(=N)N)NC(=O)[C@H](C)NC(=O)CNC(=O)[C@@H](NC(=O)[C@H](Cc1ccccc1)NC(=O)CNC(=O)CNC(=O)[C@@H](N)Cc1ccccc1)[C@@H](C)O)C(=O)N[C@@H](C)C(=O)N[C@@H](CC(N)=O)C(=O)N[C@@H](CCC(N)=O)C(=O)O` [NOCICEPTIN], the Activity result in the data set on Rattus norvegicus [8] and in the data set on Rattus norvegicus [9] was “Dose-dependent effect” in each case. Also, the ED50 entry in the data set on Rattus norvegicus [10], in the data set on Rattus norvegicus [11] and in the data set on Rattus norvegicus [12] was “inactive” throughout. Besides, the MED in the data set with Rattus norvegicus [13] was determined as 55 nmol. Besides, the MED result in the data set on Rattus norvegicus [14], with Rattus norvegicus [15] and in the data set on Rattus norvegicus [17] was “inactive” each time. Also, the outcome with Rattus norvegicus [16] and with Rattus norvegicus [18] was inactive. Moreover, in the data set on Rattus norvegicus [19], the ED50 was 10.3 nmol.
Turning to `O=C(O)C1CCCNC1` (stereo not drawn) [NIPECOTIC ACID], 7170 nM corresponded to half-maximal inhibition in [20] (IC50).
`OCC1(N2CCC(n3c(-c4ccc(F)c(Cl)c4)nc4ccccc43)CC2)CCCCCCC1`: the concentration for a half-maximal effect (EC50) was found to be 1220 nM at Mu-type opioid receptor and 8.9 nM on Nociceptin receptor [3]. This compound also registered a Ki at Nociceptin receptor [2] of 0.73 nM.
`C[C@@H](O)[C@@H]1NC(=O)[C@H](Cc2ccc(O)cc2)NC(=O)[C@@H]2C[C@@H](O)CN2C(=O)[C@H](CC(N)=O)NC(=O)[C@@H]2CSSC[C@@H]3NC(=O)[C@H](CO)NC(=O)[C@H](CO)NC(=O)CNC(=O)[C@@H]4C[C@@H](O)CN4C(=O)[C@H](CO)NC(=O)[C@H](CCCCN)NC(=O)[C@@H](N)CSSC[C@H](NC(=O)[C@H](CSSC[C@@H](C(=O)N[C@@H](Cc4ccc(O)cc4)C(N)=O)NC(=O)[C@H](CCCNC(=N)N)NC(=O)[C@H](CCCCN)NC1=O)NC(=O)[C@H](CC(N)=O)NC(=O)[C@H](Cc1ccc(O)cc1)NC(=O)[C@H](CO)NC(=O)[C@H]([C@@H](C)O)NC(=O)[C@@H]1C[C@@H](O)CN1C(=O)[C@H](CO)NC3=O)C(=O)N[C@@H](CCCNC(=N)N)C(=O)N[C@@H](CO)C(=O)N2` displayed an IC50 in [21] of 0.045 nM.
For `CC1CN(c2nc3ccccc3n2C2CCN(C3(CO)CCCCCCC3)CC2)CCN1` (stereo not drawn), the concentration giving a half-maximal response (EC50) amounted to 1770 nM on Mu-type opioid receptor, 38 nM at Nociceptin receptor [3] and 366 nM in [6]. On Nociceptin receptor [2], this compound registered a Ki of 0.96 nM. Also, the half-life at 1 µM in the data set “in vitro” worked out at 19.7 min.
At Tyrosine 3-monooxygenase, `N[C@@H](Cc1ccc(O)c(I)c1)C(=O)O` [IOTYROSINE] had an IC50 of 1.4 nM.
As for `COc1ccc(C(=O)O[C@H]2CC[C@@]3(C)[C@@H]4CC[C@H]5[C@]6(O)C[C@H](O)[C@@]7(O)[C@@H](CN8C[C@@H](C)CC[C@H]8[C@@]7(C)O)[C@]6(O)C[C@@]53O[C@]24O)cc1OC` [VERATRIDINE], the IC50 in [22] is 10700 nM.
On to `OCC1(N2CCC(n3c(-c4ccc(Cl)cc4)nc4ccccc43)CC2)CCCCCCC1`, for which the EC50 at Mu-type opioid receptor is greater than 10000 nM; on Nociceptin receptor [3], 9.1 nM. For the same compound, at Nociceptin receptor [2], the Ki amounted to 0.15 nM.
Consider `C=C[C@@]1(C)CC(=O)[C@]2(O)[C@@]3(C)[C@@H](O)CCC(C)(C)[C@@H]3[C@H](O)[C@H](OC(C)=O)[C@@]2(C)O1` [COLFORSIN], for which, in data set [23], the EC50 was determined as 4300 nM. This counts as single-digit micromolar.
`CCOC(=O)C1=C(C)NC(C)=C(C(=O)OC)C1c1cccc([N+](=O)[O-])c1` (stereo not drawn) [NITRENDIPINE]: in data set [24], the IC50 was 1.3 nM.
Take `CC1(C)CN(c2nc3ccccc3n2C2CCN(C3(CO)CCCCCCC3)CC2)CCN1`: the MED entry in the data set on Rattus norvegicus [25] was “inactive”. The same compound had a Ki at Nociceptin receptor [2] of 4.54 nM. The ED50 result in the data set with Rattus norvegicus [26] was “inactive”. This compound also returned an EC50 on Nociceptin receptor [3] of 23 nM. Moreover, in the data set with Rattus norvegicus [27], the outcome was inactive.
With `CN1CCN(c2nc3ccccc3n2C2CCN(C3(C(=O)O)CCCCCCC3)CC2)CC1`, the Ki on Nociceptin receptor [2] is greater than 250 nM.
Turning to `C=C(C)[C@@H]1[C@H]2OC(=O)[C@@H]1[C@]1(O)C[C@H]3O[C@]34C(=O)O[C@H]2[C@]14C` [PICROTOXININ], the IC50 in [28] was determined as 385 nM.
In the case of `NC[C@@H]1O[C@H](O[C@H]2[C@@H](O)[C@H](O[C@@H]3[C@@H](O)[C@H](N)C[C@H](N)[C@H]3O[C@H]3O[C@H](CN)[C@@H](O)[C@H](O)[C@H]3N)O[C@@H]2CO)[C@H](N)[C@@H](O)[C@@H]1O` [FRAMYCETIN], the IC50 in [29] is 7.9 nM.

A word on the IC50: it is the point on the concentration scale where inhibition reaches its midpoint. The Ki is a measure of affinity in units of concentration, obtained from inhibition or displacement. Lower therefore signals higher affinity. The EC50 is the concentration that produces a half-maximal response. For orientation: half-life means the time in which the quantity being followed falls by half.
